Read-outs that look alike come from different tables or passages of the source.
Molecular target: T1, Human BCL-XL protein (N-terminal HiBiT tagged BCL-XL in HT1080 cells) (Homo sapiens, UniProt Q07817)
T1 construct: expressed in transfected cells; host or cells: HT-1080 (ATCC CCL-121), stably transduced with lentivirus pLV-UBC-N-HiBiT-BCL-XL-PGK-puro and selected with puromycin
Assay: HiBiT based degradation assay
Assay type: cell-based
Settings: HT1080 cells expressing HiBiT-BCL-XL; for Ymin (6 h) / Ymin (24 h): BCL-XL degradation normalized with DMSO control; for DC50: BCL-XL degradation
Method in brief: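 HT1080 cells stably transduced by lentivirus with N-terminally HiBiT-tagged human BCL-XL and kept under 1 μg/mL puromycin selection were seeded at three thousand cells per well in 40 μL RPMI 1640 into 384-well plates pre-spotted with compounds across a concentration range. Luminescence was read on a PHERAstar FSX, normalized to DMSO, and fitted with a four-parameter logistic model.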

T1 sequence (Q07817 whole entry): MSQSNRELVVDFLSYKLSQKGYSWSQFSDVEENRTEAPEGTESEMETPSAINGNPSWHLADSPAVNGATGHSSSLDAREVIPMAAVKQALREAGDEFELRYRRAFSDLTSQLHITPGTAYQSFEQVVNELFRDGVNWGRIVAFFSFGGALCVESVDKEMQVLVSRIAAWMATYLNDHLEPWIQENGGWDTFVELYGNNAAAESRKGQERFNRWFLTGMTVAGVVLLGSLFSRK

Compound | Ymin (6 h) | Ymin (24 h) | DC50 (6 h, read-out: EC50 (6 h)) | DC50 (24 h, read-out: EC50 (24 h))
Cc1c(Oc2cccc(CCCN3CCN(c4ccc5c(C6CCC(=O)NC6=O)nn(C)c5c4)CC3)c2)cccc1-c1ccc(N2CCc3cccc(C(=O)Nc4nc5ccccc5s4)c3C2)nc1C(=O)O (stereo not shown) [Compound 195, 6-[8-(1,3-benzothiazol-2-ylcarbamoyl)-3,4-dihydro-1H-isoquinolin-2-yl]-3-[3-[3-[3-[4-[3-(2,6-dioxo-3-piperidyl)-1-methyl-indazol-6-yl]piperazin-1-yl]propyl]phenoxy]-2-methyl-phenyl]pyridine-2-carboxylic acid] | C (Ymin ≥ 70%) | B (50% ≤ Ymin < 70%) | < 0.1 µM | < 0.1 µM
Cc1c(OCCC(F)(F)C2CCN(CC(=O)Nc3cccc4c(C5CCC(=O)NC5=O)nn(C)c34)CC2)cccc1-c1ccc(N2CCc3cccc(C(=O)Nc4nc5ccccc5s4)c3C2)nc1C(=O)O (stereo not shown) [Compound 196, 6-(8-(benzo[d]thiazol-2-ylcarbamoyl)-3,4-dihydroisoquinolin-2(1H)-yl)-3-(3-(3-(1-(2-((3-(2,6-dioxopiperidin-3-yl)-1-methyl-1H-indazol-7-yl)amino)-2-oxoethyl)piperidin-4-yl)-3,3-difluoropropoxy)-2-methylphenyl)picolinic acid] | – | B (50% ≤ Ymin < 70%) | – | 0.1 to 1 µM
Cc1c(OCCN2CCN(CC3CCN(c4ccc5c(C6CCC(=O)NC6=O)nn(C)c5c4)CC3)CC2)cccc1-c1ccc(N2CCc3cccc(C(=O)Nc4nc5ccccc5s4)c3C2)nc1C(=O)O (stereo not shown) [Compound 198, 6-(8-(benzo[d]thiazol-2-ylcarbamoyl)-3,4-dihydroisoquinolin-2(1H)-yl)-3-(3-(2-(4-((1-(3-(2,6-dioxopiperidin-3-yl)-1-methyl-1H-indazol-6-yl)piperidin-4-yl)methyl)piperazin-1-yl)ethoxy)-2-methylphenyl)picolinic acid] | – | A (Ymin < 50%) | – | < 0.1 µM
Cc1c(Oc2ccc(CC(F)(F)CN3CCN(c4cccc5c(C6CCC(=O)NC6=O)nn(C)c45)CC3)cc2)cccc1-c1ccc(N2CCc3cccc(C(=O)Nc4nc5ccccc5s4)c3C2)nc1C(=O)O (stereo not shown) [Compound 201, 6-[8-(1,3-benzothiazol-2-ylcarbamoyl)-3,4-dihydro-1H-isoquinolin-2-yl]-3-[3-[4-[3-[4-[3-(2,6-dioxo-3-piperidyl)-1-methyl-indazol-7-yl]piperazin-1-yl]-2,2-difluoro-propyl]phenoxy]-2-methyl-phenyl]pyridine-2-carboxylic acid] | B (50% ≤ Ymin < 70%) | A (Ymin < 50%) | 1 to 10 µM | 1 to 10 µM

Next, values leading:

Ymin (6 h) | Ymin (24 h) | DC50 (6 h, read-out: EC50 (6 h)) | DC50 (24 h, read-out: EC50 (24 h)) | Compound
– | B (50% ≤ Ymin < 70%) | – | 0.1 to 1 µM | Cc1c(OCCC[C@H]2CCN(CC(=O)Nc3cccc4c(C5CCC(=O)NC5=O)nn(C)c34)CC2(F)F)cccc1-c1ccc(N2CCc3cccc(C(=O)Nc4nc5ccccc5s4)c3C2)nc1C(=O)O (stereo partly drawn) [Compound 197a, 6-(8-(benzo[d]thiazol-2-ylcarbamoyl)-3,4-dihydroisoquinolin-2(1H)-yl)-3-(3-(3-((4S)-1-(2-((3-(2,6-dioxopiperidin-3-yl)-1-methyl-1H-indazol-7-yl)amino)-2-oxoethyl)-3,3-difluoropiperidin-4-yl)propoxy)-2-methylphenyl)picolinic acid]
– | B (50% ≤ Ymin < 70%) | – | 0.1 to 1 µM | Cc1c(OCCC[C@@H]2CCN(CC(=O)Nc3cccc4c(C5CCC(=O)NC5=O)nn(C)c34)CC2(F)F)cccc1-c1ccc(N2CCc3cccc(C(=O)Nc4nc5ccccc5s4)c3C2)nc1C(=O)O (stereo partly drawn) [Compound 197b, 6-(8-(benzo[d]thiazol-2-ylcarbamoyl)-3,4-dihydroisoquinolin-2(1H)-yl)-3-(3-(3-((4R)-1-(2-((3-(2,6-dioxopiperidin-3-yl)-1-methyl-1H-indazol-7-yl)amino)-2-oxoethyl)-3,3-difluoropiperidin-4-yl)propoxy)-2-methylphenyl)picolinic acid]

From patent US20240238423A9, “TETRAHYDROISOQUINOLINE HETEROBIFUNCTIONAL BCL-XL DEGRADERS” (Treeline Biosciences, Inc., priority 2022, published 2024)
